According to ChEMBL document CHEMBL1138458, “Fructose-1,6-bisphosphatase inhibitors. 1. Purine phosphonic acids as novel AMP mimics” (J Med Chem, 2009):

Legend:
[1] = biological target: T1, Fructose-1,6-bisphosphatase 1 (Homo sapiens, UniProt P09467); test: Inhibition of human liver FBPase expressed in Escherichia coli by spectrophotometry
T1 sequence (P09467 whole entry): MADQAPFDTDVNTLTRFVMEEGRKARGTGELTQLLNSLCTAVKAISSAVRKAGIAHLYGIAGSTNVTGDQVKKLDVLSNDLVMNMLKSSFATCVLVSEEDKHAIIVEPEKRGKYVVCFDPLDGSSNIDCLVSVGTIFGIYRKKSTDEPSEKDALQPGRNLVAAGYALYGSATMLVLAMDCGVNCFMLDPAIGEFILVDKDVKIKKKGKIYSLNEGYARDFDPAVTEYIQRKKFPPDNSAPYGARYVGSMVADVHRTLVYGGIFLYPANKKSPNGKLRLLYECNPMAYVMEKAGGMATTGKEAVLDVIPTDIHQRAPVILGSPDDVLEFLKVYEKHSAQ

[2] = Inhibition of New Zealand white rabbit liver phosphofructokinase; set-up: species or system Oryctolagus cuniculus
[3] = tested on: Rattus norvegicus; test: Increase in fructose-1,6-bisphosphate level in overnight-fasted Sprague-Dawley rat liver at 20 mg/kg, ip relative to control; format: organism-based; set-up: dose 20 mg/kg, route intraperitoneal; settings: in vivo
[4] = Inhibition of pig heart AMP deaminase; set-up: species or system Sus scrofa
[5] = tested on: Hepatocyte; test: Inhibition of glucose production in rat primary hepatocytes treated for 15 to 30 mins prior to gluconeogenic substrate dihydroxyacetone addition; format: functional, cell-based
[6] = Plasma concentration in overnight-fasted Sprague-Dawley rat at 20 mg/kg, ip after 1 hr; format: ADME, organism-based; set-up: dose 20 mg/kg, route intraperitoneal
[7] = biological target: Adenosine kinase (Homo sapiens, UniProt P55263); test: Inhibition of human recombinant adenosine kinase expressed in Escherichia coli
Chain of Adenosine kinase (P55263 whole entry): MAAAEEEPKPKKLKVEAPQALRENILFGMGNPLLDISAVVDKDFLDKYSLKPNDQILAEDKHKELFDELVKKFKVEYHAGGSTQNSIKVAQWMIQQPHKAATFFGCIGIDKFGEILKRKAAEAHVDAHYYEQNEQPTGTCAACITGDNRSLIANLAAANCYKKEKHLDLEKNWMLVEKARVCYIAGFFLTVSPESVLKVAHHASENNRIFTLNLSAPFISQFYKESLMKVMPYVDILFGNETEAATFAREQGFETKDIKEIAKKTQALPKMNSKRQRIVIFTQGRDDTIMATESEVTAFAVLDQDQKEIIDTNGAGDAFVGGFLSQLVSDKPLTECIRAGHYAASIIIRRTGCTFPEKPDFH

[8] = tested on: Rattus norvegicus; test: Reduction in blood glucose level in overnight-fasted Sprague-Dawley rat at 20 mg/kg, ip within 1 hr; format: organism-based; set-up: dose 20 mg/kg, route intraperitoneal; scale not given: the % may be the effect or the level left; settings: in vivo
[9] = biological target: T2, Glycogen phosphorylase, muscle form (Oryctolagus cuniculus, UniProt P00489); test: Inhibition of rabbit muscle glycogen phosphorylase
T2 sequence (P00489 whole entry): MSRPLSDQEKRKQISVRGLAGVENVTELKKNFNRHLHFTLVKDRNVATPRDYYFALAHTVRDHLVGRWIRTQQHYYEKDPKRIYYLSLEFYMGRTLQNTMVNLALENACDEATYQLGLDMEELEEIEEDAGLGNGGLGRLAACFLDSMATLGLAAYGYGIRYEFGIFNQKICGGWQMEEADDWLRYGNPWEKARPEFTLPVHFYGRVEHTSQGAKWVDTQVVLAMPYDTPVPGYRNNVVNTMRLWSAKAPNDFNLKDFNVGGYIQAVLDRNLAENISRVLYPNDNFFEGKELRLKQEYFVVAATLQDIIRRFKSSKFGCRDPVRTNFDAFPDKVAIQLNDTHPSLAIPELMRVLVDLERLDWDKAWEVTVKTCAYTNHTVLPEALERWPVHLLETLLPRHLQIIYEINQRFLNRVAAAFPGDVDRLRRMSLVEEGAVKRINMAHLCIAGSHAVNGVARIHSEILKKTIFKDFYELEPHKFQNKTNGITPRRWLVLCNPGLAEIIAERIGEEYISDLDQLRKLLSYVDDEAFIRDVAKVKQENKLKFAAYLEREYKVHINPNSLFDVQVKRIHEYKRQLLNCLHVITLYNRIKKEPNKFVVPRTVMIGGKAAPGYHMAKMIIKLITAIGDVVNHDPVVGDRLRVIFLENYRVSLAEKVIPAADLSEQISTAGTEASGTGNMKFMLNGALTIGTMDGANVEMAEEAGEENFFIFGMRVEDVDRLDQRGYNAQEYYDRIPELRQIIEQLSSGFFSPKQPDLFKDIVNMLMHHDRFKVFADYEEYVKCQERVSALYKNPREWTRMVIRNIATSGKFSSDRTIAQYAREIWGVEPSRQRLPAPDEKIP

[10] = tested on: Liver; test: Drug concentration in overnight-fasted Sprague-Dawley rat liver at 20 mg/kg, ip after 1 hr; format: ADME, organism-based; set-up: dose 20 mg/kg, route intraperitoneal; settings: in vivo
[11] = tested on: Rattus norvegicus; test: Oral bioavailability in fasted Sprague-Dawley rat assessed as urinary excretion of phosphonic acid up to 300 mg/kg; format: ADME, organism-based, Urine; settings: in vivo
[12] = biological target: T3, Fructose-1,6-bisphosphatase 1 (Rattus norvegicus, UniProt P19112); test: Inhibition of rat liver FBPase
T3 sequence (P19112 whole entry): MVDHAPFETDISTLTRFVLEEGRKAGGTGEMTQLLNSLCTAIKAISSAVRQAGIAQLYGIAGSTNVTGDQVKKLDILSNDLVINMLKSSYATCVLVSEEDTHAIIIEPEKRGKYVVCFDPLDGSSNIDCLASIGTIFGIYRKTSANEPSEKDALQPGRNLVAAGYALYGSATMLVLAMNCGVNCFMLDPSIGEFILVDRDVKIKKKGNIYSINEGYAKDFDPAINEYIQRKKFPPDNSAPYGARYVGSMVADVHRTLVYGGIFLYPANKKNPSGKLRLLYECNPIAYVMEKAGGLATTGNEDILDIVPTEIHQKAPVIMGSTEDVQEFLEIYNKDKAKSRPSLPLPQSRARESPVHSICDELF

[13] = biological target: T4, Fructose-1,6-bisphosphatase 1 (Homo sapiens) (UniProt P09467)
T4 sequence (whole entry): T1 sequence (P09467 whole entry)
Description: Displacement of [3H]AMP from human liver FBPase

Row | IC50 [1] [µM] | Structure (SMILES) | also measured
1 | 1.5 | Nc1ncnc2c1nc(-c1ccc(P(=O)(O)O)o1)n2C1CC1 | –
2 | 150 | Nc1ncnc2c1nc(-c1ccc(S(=O)(=O)O)o1)n2CCc1ccccc1 | –
3 | 35 | Nc1ncnc2c1nc(NCCP(=O)(O)O)n2Cc1ccc2ccccc2c1 | –
4 | > 100 | Nc1ncnc2c1nc(NCCC(=O)O)n2[C@@H]1O[C@H](CO)[C@@H](O)[C@H]1O | –
5 | > 1000 | CC(Cc1nc2c(N)ncnc2n1CCc1ccccc1)[PH](=O)O (stereo not drawn) | –
6 | 250 | CN(C)c1ncnc2c1nc(-c1ccc(P(=O)(O)O)o1)n2CCc1ccccc1 | –
7 | > 10 | CC(C)(C)Cn1c(-c2coc(P(=O)(O)O)c2)nc2c(N)ncnc21 | –
8 | 50 | CNc1ncnc2c1nc(-c1ccc(P(=O)(O)O)o1)n2CCc1ccccc1 | –
9 | 5.5 | CC(C)(C)Cn1c(-c2ccc(P(=O)(O)O)o2)nc2c(N)nc(N)nc21 | –
10 | > 10 | CN(C)CC(C)(C)Cn1c(-c2ccc(P(=O)(O)O)o2)nc2c(N)ncnc21 | –

Continued, compound first:

Row | Structure (SMILES) | IC50 [1] [µM] | also measured
11 | Nc1ncnc2c1nc(-c1ccc(P(=O)(O)O)o1)n2CC(c1ccccc1)c1ccccc1 | 70 | –
12 | Nc1ncnc2c1nc(COCP(=O)(O)O)n2CCc1ccccc1 | 23 | –
13 | Nc1ncnc2c1nc(CCCP(=O)(O)O)n2CCc1ccccc1 | 100 | –
14 | CC(C)(C)Cn1c(-c2ccc(P(=O)(O)O)o2)nc2c(N)ncnc21 | – | EC50 [2]: > 100 µM; Activity [3]: 10; IC50 [4]: 390 µM; EC50 [5]: 90 µM; concentration at 1 h [6]: 38.5 µM; IC50 [7]: > 100 µM; Activity [8]: 65%; EC50 [9]: > 100 µM; Drug uptake [10]: 51.3 nmol/g; F [11]: 1.6%
15 | COc1cc2c(c(OC)c1OC)C(=O)OC2OP(=O)(OC1OC(=O)c2c1cc(OC)c(OC)c2OC)c1ccc(-c2nc3c(N)ncnc3n2CCc2ccccc2)o1 (stereo not drawn) | – | EC50 [5]: 75 µM
16 | Nc1ncnc2c1nc(CCC[PH](=O)O)n2CCc1ccccc1 | > 1000 | –
17 | Nc1ncnc2c1nc(CNCP(=O)(O)O)n2CCc1ccccc1 | > 500 | –
18 | Nc1ncnc2c1nc(/C=C/C(=O)O)n2[C@@H]1O[C@H](CO)[C@@H](O)[C@H]1O | > 100 | –
19 | CC(C)(CCl)Cn1c(-c2ccc(P(=O)(O)O)o2)nc2c(N)ncnc21 | – | EC50 [5]: 7.5 µM; IC50 [12]: > 2 µM
20 | Nc1ncnc2c1nc(NCCP(=O)(O)O)n2Cc1ccccc1 | 91 | –
21 | C[C@H]1O[C@@H](n2c(NCCP(=O)(O)O)nc3c(N)ncnc32)[C@H](O)[C@@H]1O | 100 | –
22 | NC(=O)c1ncn([C@@H]2O[C@H](COP(=O)(O)O)[C@@H](O)[C@H]2O)c1N | 12 | ED50 [13]: 250 µM
23 | COc1ccc(COP(=O)(OCc2ccc(OC)c(C#N)c2)c2ccc(-c3nc4c(N)ncnc4n3CCc3ccccc3)o2)cc1C#N | – | EC50 [5]: > 100 µM
24 | CC(C)C(=O)OCOP(=O)(OCOC(=O)C(C)C)c1ccc(-c2nc3c(N)ncnc3n2CCc2ccccc2)o1 | – | EC50 [5]: 25 µM
25 | Cn1c(P(=O)(O)O)cnc1-c1nc2c(N)ncnc2n1CC(C)(C)C | > 10 | –
26 | CC(C)(C)Cn1c(-c2ccc(P(=O)(OCOC(=O)C(C)(C)C)OCOC(=O)C(C)(C)C)o2)nc2c(N)ncnc21 | – | F [11]: 5.3%
27 | CC(=O)OC1CCCC(OP(=O)(OC2CCCC(OC(C)=O)C2)c2ccc(-c3nc4c(N)ncnc4n3CCc3ccccc3)o2)C1 (stereo not drawn) | – | EC50 [5]: 400 µM
28 | CSc1nc(N)c2nc(-c3ccc(P(=O)(O)O)o3)n(CC(C)(C)C)c2n1 | 1.1 | EC50 [5]: 8.5 µM; IC50 [12]: 4 µM
29 | O=P(O)(O)c1ccc(-c2nc3c(Cl)ncnc3n2CCc2ccccc2)o1 | 50 | –
30 | Nc1ncnc2c1nc(S(=O)(=O)CCP(=O)(O)O)n2CCc1ccccc1 | > 1000 | –
